According to PubChem BioAssay (NCI):
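Five concentrations, 48 hours, 96-well plates. Definition used: TGI = concentration required for complete inhibition of growth.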

Experiments:
Assay in all cases: NCI anticancer screen, dose series, 48 h
ACHN renal = tested on: ACHN renal
IGROV1 ovarian = tested on: IGROV1 ovarian
UACC-257 melanoma = tested on: UACC-257 melanoma
SK-OV-3 ovarian = tested on: SK-OV-3 ovarian
LOX IMVI melanoma = tested on: LOX IMVI melanoma
DMS 273 small cell lung = tested on: DMS 273 small cell lung
CCRF-CEM leukemia = tested on: CCRF-CEM leukemia
CAKI-1 renal = tested on: CAKI-1 renal
KM20L2 colon = tested on: KM20L2 colon
K-562 leukemia = tested on: K-562 leukemia
MOLT-4 leukemia = tested on: MOLT-4 leukemia
HOP-18 NSCLC = tested on: HOP-18 NSCLC
SF-268 CNS = tested on: SF-268 CNS
OVCAR-8 ovarian = tested on: OVCAR-8 ovarian
HCC-2998 colon = tested on: HCC-2998 colon
SF-539 CNS = tested on: SF-539 CNS
KM12 colon = tested on: KM12 colon
LXFL 529 NSCLC = tested on: LXFL 529 NSCLC
HOP-62 NSCLC = tested on: HOP-62 NSCLC
A549 NSCLC = tested on: A549 NSCLC
RXF-631 renal = tested on: RXF-631 renal
UO-31 renal = tested on: UO-31 renal
TK-10 renal = tested on: TK-10 renal
SR leukemia = tested on: SR leukemia
786-0 renal = tested on: 786-0 renal
SF-295 CNS = tested on: SF-295 CNS
M19-MEL melanoma = tested on: M19-MEL melanoma
OVCAR-4 ovarian = tested on: OVCAR-4 ovarian
COLO 205 colon = tested on: COLO 205 colon
OVCAR-5 ovarian = tested on: OVCAR-5 ovarian
OVCAR-3 ovarian = tested on: OVCAR-3 ovarian
HCT-15 colon = tested on: HCT-15 colon
SN12C renal = tested on: SN12C renal
MALME-3M melanoma = tested on: MALME-3M melanoma
SNB-75 CNS = tested on: SNB-75 CNS
SNB-78 CNS = tested on: SNB-78 CNS
SK-MEL-2 melanoma = tested on: SK-MEL-2 melanoma
A498 renal = tested on: A498 renal
XF 498 CNS = tested on: XF 498 CNS
HCT-116 colon = tested on: HCT-116 colon
HOP-92 NSCLC = tested on: HOP-92 NSCLC
DMS 114 small cell lung = tested on: DMS 114 small cell lung
RXF 393 renal = tested on: RXF 393 renal
M14 melanoma = tested on: M14 melanoma
NCI-H460 lung = tested on: NCI-H460 lung
UACC-62 melanoma = tested on: UACC-62 melanoma
EKVX NSCLC = tested on: EKVX NSCLC
SK-MEL-28 melanoma = tested on: SK-MEL-28 melanoma
RPMI-8226 leukemia = tested on: RPMI-8226 leukemia
SK-MEL-5 melanoma = tested on: SK-MEL-5 melanoma
NCI-H23 lung = tested on: NCI-H23 lung
NCI-H522 lung = tested on: NCI-H522 lung
HL-60(TB) leukemia = tested on: HL-60(TB) leukemia
HT29 colon = tested on: HT29 colon
U251 CNS = tested on: U251 CNS
SNB-19 CNS = tested on: SNB-19 CNS
NCI-H226 lung = tested on: NCI-H226 lung
SW-620 colon = tested on: SW-620 colon
DLD-1 colon = tested on: DLD-1 colon

Measured: TGI

COC(=O)C(Cc1nc2ccc(Cl)cc2[nH]c1=O)/C(=N/NC(N)=O)C(=O)Nc1ccc(Cl)cc1 (stereo not given)
> 100 µM: ACHN renal | IGROV1 ovarian | UACC-257 melanoma | SK-OV-3 ovarian | LOX IMVI melanoma | DMS 273 small cell lung | CCRF-CEM leukemia | CAKI-1 renal | KM20L2 colon | K-562 leukemia | MOLT-4 leukemia | HOP-18 NSCLC | SF-268 CNS | OVCAR-8 ovarian | HCC-2998 colon | SF-539 CNS | KM12 colon | LXFL 529 NSCLC | HOP-62 NSCLC | A549 NSCLC | RXF-631 renal | UO-31 renal | TK-10 renal | SR leukemia | 786-0 renal | SF-295 CNS | M19-MEL melanoma | OVCAR-4 ovarian | COLO 205 colon | OVCAR-5 ovarian | OVCAR-3 ovarian | HCT-15 colon | SN12C renal | MALME-3M melanoma | SNB-75 CNS | SNB-78 CNS | SK-MEL-2 melanoma | A498 renal | XF 498 CNS | HCT-116 colon | HOP-92 NSCLC | DMS 114 small cell lung | RXF 393 renal | M14 melanoma | NCI-H460 lung | UACC-62 melanoma | EKVX NSCLC | SK-MEL-28 melanoma | RPMI-8226 leukemia | SK-MEL-5 melanoma | NCI-H23 lung | NCI-H522 lung | HL-60(TB) leukemia | HT29 colon | U251 CNS | SNB-19 CNS | NCI-H226 lung | SW-620 colon

O=c1cc(-c2ccc(Cl)cc2)oc2cc(OCCCOc3ccc4c(=O)cc(-c5ccc(Cl)cc5)oc4c3)ccc12
> 100 µM: ACHN renal | IGROV1 ovarian | UACC-257 melanoma | SK-OV-3 ovarian | LOX IMVI melanoma | DMS 273 small cell lung | CCRF-CEM leukemia | CAKI-1 renal | KM20L2 colon | K-562 leukemia | MOLT-4 leukemia | HOP-18 NSCLC | SF-268 CNS | OVCAR-8 ovarian | HCC-2998 colon | SF-539 CNS | DLD-1 colon | KM12 colon | LXFL 529 NSCLC | HOP-62 NSCLC | A549 NSCLC | RXF-631 renal | TK-10 renal | SR leukemia | 786-0 renal | SF-295 CNS | M19-MEL melanoma | OVCAR-4 ovarian | COLO 205 colon | OVCAR-5 ovarian | OVCAR-3 ovarian | HCT-15 colon | SN12C renal | MALME-3M melanoma | SNB-75 CNS | SNB-78 CNS | SK-MEL-2 melanoma | XF 498 CNS | HCT-116 colon | HOP-92 NSCLC | DMS 114 small cell lung | RXF 393 renal | M14 melanoma | NCI-H460 lung | UACC-62 melanoma | EKVX NSCLC | SK-MEL-28 melanoma | RPMI-8226 leukemia | SK-MEL-5 melanoma | NCI-H23 lung | NCI-H522 lung | HL-60(TB) leukemia | HT29 colon | U251 CNS | SNB-19 CNS | NCI-H226 lung | SW-620 colon
